This is an account of results in patent US11672786B2, “Methods of treating diseases associated with repeat instability” (The Hospital for Sick Children, priority 2016, dated 2023).

Experiment [1] concerns CASK, HTT (normal allele), Mfd15 and TBP loci in HD fibroblasts. The experiment in a line: repeat-tract lengths of non-expanded loci in HD fibroblasts. In kind it is cell-based, human. The text has this: Scale bar represents 20 μm. […] The cell viability was estimated with WST-1 assays. Values represent the means of three independent measures±SD. […] Error bars indicate the SD of triplicate experiments. […] The dashed line indicates the peak CAG size. Allele lengths are grouped in bins spanning 10 repeats. More than 230 alleles were sized per group.
FIG. 12 are representative data showing ultra-sensitive small-pool PCR for the non-expanded CAG/CTG repeat length of CASK in HD primary fibroblast cells (Panel A of FIG. 12) and HT1080-(CAG)850 cells (Panel B of FIG. 12). […] Repeat lengths were analyzed by Agilent BioAnalyzer.
Genomic DNA was extracted from HT1080-(CAG)850 clones and HD primary fibroblasts using the Gentra Puregene Cell Kit (Qiagen, Valencia, Calif.). […] At least 50 alleles were analyzed for each of the three experiments (more than 150 alleles for a total study). […] For the histograms in FIGS. 4D, 4E, 10, 11, 5B, 5D, 5E, 14 and 15B, the Y-axis, “% of repeat population” was calculated by determining the proportion of >50 individual small-pool PCR reactions across the CAG repeat tract, that harbored a certain size of repeat product with a certain length. […] Length distributions were determined as follows: Small-pool PCR followed by Southern blot for analysis of CAG/CTG repeat length. […]

The next experiment concerns d(CAG)10. Conditions: ESI-TOF MS; cited from earlier work.

Turning to naphthyridine-azaquinolone, the “length variation at CASK, HTT (normal allele), and Mfd15 loci” value in experiment [1] (40 days incubation with or without NA) is “Length variation was not observed”. Moreover, the “length distribution of non-mutant TBP repeats (38 and 34 repeats)” value in experiment [1] (HD patient cells, 40 days) is given as “did not change the length distribution of the TBP repeats”. In addition, in the experiment with d(CAG)10, the “number of NA molecules bound to the repeat” value is reported as “at least 6 NA molecules”.
